From patent US8959984B2, “Proteome-wide quantification of small molecule binding to cellular target proteins” (priority 2007, dated 2015)
Where “and” joins values, the source holds several entries; their conditions need not be identical. Equal entries are not always repeated.

Key:
Test in all cases: binding to AX14596 beads (HeLa lysate, SILAC MS)
ACAD10 = target: T1, ACAD10 (Homo sapiens, UniProt Q6JQN1)
T1 sequence (Q6JQN1 1-1059): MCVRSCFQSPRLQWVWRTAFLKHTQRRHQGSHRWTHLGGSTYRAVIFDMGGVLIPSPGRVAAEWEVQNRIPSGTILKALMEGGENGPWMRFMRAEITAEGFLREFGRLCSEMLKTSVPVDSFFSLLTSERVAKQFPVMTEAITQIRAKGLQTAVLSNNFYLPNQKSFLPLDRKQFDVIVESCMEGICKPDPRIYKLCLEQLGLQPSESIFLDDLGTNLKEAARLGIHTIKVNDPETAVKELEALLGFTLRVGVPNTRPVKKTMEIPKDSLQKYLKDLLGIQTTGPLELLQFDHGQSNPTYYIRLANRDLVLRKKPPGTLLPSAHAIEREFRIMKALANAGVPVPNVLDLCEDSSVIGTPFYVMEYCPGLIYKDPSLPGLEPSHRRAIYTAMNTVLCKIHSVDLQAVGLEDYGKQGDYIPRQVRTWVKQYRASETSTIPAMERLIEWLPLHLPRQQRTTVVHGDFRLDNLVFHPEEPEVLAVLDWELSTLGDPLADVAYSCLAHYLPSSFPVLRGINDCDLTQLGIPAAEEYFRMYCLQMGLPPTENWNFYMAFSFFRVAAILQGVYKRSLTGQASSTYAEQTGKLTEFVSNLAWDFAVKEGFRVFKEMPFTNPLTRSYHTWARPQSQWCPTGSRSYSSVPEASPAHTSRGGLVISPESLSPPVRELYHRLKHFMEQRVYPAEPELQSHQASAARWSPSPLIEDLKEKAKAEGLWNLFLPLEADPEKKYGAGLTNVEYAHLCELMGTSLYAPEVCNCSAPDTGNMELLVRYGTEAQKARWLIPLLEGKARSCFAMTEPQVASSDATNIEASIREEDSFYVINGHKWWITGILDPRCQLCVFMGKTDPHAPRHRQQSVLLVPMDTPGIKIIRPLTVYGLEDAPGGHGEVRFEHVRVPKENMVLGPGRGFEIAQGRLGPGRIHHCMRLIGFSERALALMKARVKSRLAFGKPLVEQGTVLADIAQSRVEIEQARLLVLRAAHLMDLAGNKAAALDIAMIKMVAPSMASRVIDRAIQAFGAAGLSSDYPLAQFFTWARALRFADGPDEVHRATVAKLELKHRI
Description: (§1) Differentially SILAC-encoded cell lysates were either incubated with the inhibitor beads displaying immobilized AX14596 or control resin devoid of ligand. In parallel, the supernatant from the first binding step was subjected to a second incubation with the AX14596 resin (FIG. 4). The resulting three elution fractions were combined, resolved by gel electrophoresis, proteolytically digested and the relative abundance of the retained proteins quantified. Proteins showing considerable binding to the control resin were identified as non-specific interactors and therefore not considered further. […] These target-specific ratios were similar in “label switch” experiments (FIGS. 6a and 6c). The binding equilibrium was determined in parallel control SILAC experiments as well as the excess of the immobilized compound over its cellular targets, the excess preferably being a molar excess (FIG. 7 and FIG. 8).
(§2) Cysteine carbamidomethylation was set as a fixed modification and N-acetyl protein and oxidized methionine were allowed as variable modifications. Spectra that were determined to result from heavy labeled peptides in the pre-search detection of SILAC partners by MaxQuant were searched with the fixed modifications Lys^4, Lys^8, Arg^6 and Arg^10, whereas MS/MS spectra for which no SILAC state could be assigned before database searching were searched with Lys^4, Lys^8, Arg^6 and Arg^10 as variable modifications. The mass tolerance was set to 5 ppm for monoisotopic precursor ions and to 0.5 Da for MS/MS peaks. The minimum peptide length was set to 6 amino acids and up to three missed cleavages and three isotopically labeled amino acids were permitted per peptide. The accepted false discovery rate (FDR) was 1% for the proteins and peptides. The cut-off for the posterior error probability (PEP) of peptides was set to 10%. Peptide PEPs were determined by generating Mascot score and peptide-length-dependent histograms for both the forward and the reverse hits and then deriving the probability of a false identification for a given top-scoring peptide using Bayes' theorem. The PEPs of peptides belonging to the same proteins were then multiplied. Each peptide sequence was considered only once with the lowest PEP determined in case of multiple sequencing of the same isotopic pattern or of peptide species with different SILAC, charge or modification states. Proteins were then sorted according to their products of their peptide PEPs and included until a FDR of 1% was reached according to the fraction of reverse proteins contained in the protein list. In addition to the FDR threshold applied for protein identification, proteins were only included when they were identified with at least two peptides (of which one was required to be unique for the protein) and quantified if at least on quantifiable SILAC pair was associated with them. Outliers were not removed as protein ratios were calculated as the median instead of the average of all peptide ratios. For peptides shared among different identified proteins, SILAC ratios were only considered for the ratio of the protein identified with the highest number of unique peptides. Protein ratios for the different in vitro association experiments were corrected for the initial SILAC pooling ratio, which was determined from the median of protein ratios in pooled SILAC-encoded cell extracts.

BRK (PTK6) = target: T2, BRK (PTK6) (Homo sapiens, UniProt Q13882)
T2 construct: endogenous in cells; host or cells: HeLa S3
T2 sequence (Q13882 whole entry): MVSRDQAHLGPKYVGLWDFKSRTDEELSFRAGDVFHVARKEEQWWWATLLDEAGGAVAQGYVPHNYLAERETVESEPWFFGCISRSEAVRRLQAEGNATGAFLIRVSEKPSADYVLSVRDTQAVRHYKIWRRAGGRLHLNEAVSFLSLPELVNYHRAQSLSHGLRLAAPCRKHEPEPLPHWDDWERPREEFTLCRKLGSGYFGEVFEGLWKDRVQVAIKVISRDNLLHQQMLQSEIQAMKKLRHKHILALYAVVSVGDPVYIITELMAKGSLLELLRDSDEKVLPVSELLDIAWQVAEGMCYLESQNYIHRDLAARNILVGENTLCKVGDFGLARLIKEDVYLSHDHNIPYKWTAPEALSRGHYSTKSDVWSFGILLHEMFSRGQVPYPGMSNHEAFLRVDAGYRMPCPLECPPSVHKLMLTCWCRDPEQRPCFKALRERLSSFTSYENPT
Description: as §1, §2

LYN = LYN (Homo sapiens, UniProt P07948)
Sequence of LYN (P07948 whole entry): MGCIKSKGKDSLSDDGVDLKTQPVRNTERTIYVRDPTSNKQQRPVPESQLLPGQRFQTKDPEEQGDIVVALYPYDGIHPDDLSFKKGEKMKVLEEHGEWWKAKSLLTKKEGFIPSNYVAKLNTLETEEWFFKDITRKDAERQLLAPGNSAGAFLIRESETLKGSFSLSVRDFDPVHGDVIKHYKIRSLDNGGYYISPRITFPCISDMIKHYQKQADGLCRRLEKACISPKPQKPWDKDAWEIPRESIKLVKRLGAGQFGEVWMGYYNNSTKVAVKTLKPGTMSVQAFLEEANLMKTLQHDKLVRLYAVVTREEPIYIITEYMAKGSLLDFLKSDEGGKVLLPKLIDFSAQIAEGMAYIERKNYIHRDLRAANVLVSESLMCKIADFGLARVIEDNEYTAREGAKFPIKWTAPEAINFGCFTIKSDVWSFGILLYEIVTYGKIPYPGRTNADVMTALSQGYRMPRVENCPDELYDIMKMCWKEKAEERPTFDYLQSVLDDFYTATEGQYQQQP
Description: as §1, §2

YES (YES1) = target: T3, YES (YES1) (Homo sapiens, UniProt P07947)
T3 construct: endogenous in cells; host or cells: HeLa S3
T3 sequence (P07947 whole entry): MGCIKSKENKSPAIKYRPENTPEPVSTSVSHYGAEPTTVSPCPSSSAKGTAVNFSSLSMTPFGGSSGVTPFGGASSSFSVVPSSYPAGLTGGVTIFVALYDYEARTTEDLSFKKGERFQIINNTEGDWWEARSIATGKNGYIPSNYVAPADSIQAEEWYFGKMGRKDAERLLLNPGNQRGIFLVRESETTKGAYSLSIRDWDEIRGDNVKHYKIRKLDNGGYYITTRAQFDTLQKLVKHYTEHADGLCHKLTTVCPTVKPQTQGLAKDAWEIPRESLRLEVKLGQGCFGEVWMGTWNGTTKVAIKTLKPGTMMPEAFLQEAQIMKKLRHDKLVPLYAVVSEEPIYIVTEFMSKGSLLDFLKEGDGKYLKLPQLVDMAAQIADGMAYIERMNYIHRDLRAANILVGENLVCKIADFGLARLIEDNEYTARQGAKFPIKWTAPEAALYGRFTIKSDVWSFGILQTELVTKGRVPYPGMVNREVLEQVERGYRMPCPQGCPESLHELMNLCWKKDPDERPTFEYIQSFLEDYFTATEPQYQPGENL
Description: as §1, §2

`COc1cc2ncnc(Nc3ccc(F)c(Cl)c3)c2cc1OCCCN` [AX14596] was tested, and the Ki (ACAD10) was 108 µM, the “r (3 mg/1 mg lysate)” value (ACAD10) was 8.45 and the “r (5 h/2.5 h inc. time)” value (ACAD10) was 0.48. For the same compound, the “rAVERAGE (2. inc/1. inc)” value (ACAD10) was 0.52, the “rAVERAGE (control/1. inc)” value (ACAD10) was 0.08 and the Ki (BRK (PTK6)) was 45 µM and 45.4 µM. The “r (3 mg/1 mg lysate)” value (BRK (PTK6)) was 2.56, the “r (5 h/2.5 h inc. time)” value (BRK (PTK6)) was 0.96 and the “rAVERAGE (2. inc/1. inc)” value (BRK (PTK6)) was 0.31. For the same compound, the “rAVERAGE (control/1. inc)” value (BRK (PTK6)) was 0.02, the “% BOUND” value (BRK (PTK6); bound to AX14596 beads) was 69% and the Ki (LYN) was 195 µM. For the same compound, the “r (3 mg/1 mg lysate)” value (LYN) was 2.14, the “r (5 h/2.5 h inc. time)” value (LYN) was 0.98 and the “rAVERAGE (2. inc/1. inc)” value (LYN) was 0.66. For the same compound, the “rAVERAGE (control/1. inc)” value (LYN) was 0.07, the “% BOUND” value (LYN; bound to AX14596 beads) was 34% and the Ki (YES (YES1)) was 658 µM. For the same compound, the “r (3 mg/1 mg lysate)” value (YES (YES1)) was 2.03, the “r (5 h/2.5 h inc. time)” value (YES (YES1)) was 0.98 and the “rAVERAGE (2. inc/1. inc)” value (YES (YES1)) was 0.87. For the same compound, the “rAVERAGE (control/1. inc)” value (YES (YES1)) was 0.05 and the “% BOUND” value (YES (YES1); bound to AX14596 beads) was 13%.
